# Test results published in PubChem BioAssay (NCI).
# “And” between values parts separate entries of the source, which are not always exact repeats. Equal entries are not always repeated.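 Dose response: 5 concentrations. Exposure: 48 h. Format: 96-well plates. Endpoint: linear interpolation; highest concentration if not reached. At the GI50, growth is halved. TGI marks complete inhibition of growth.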
# Columns and labels:
# Test in all cases: NCI tumour cell line growth inhibition, 48 h
# [1] = tested on: SF-295 CNS
# [2] = tested on: A549 NSCLC
# [3] = tested on: COLO 205 colon
# [4] = tested on: HT29 colon
# [5] = tested on: LOX IMVI melanoma
# [6] = tested on: SR leukemia
# [7] = tested on: SK-OV-3 ovarian
# [8] = tested on: HS 578T breast
# [9] = tested on: KM12 colon
# [10] = tested on: NCI-H23 lung
Compound,GI50 [1],TGI [1],GI50 [2],TGI [2],GI50 [3],TGI [3],GI50 [4],TGI [4],GI50 [5],TGI [5],GI50 [6],TGI [6],GI50 [7],TGI [7],GI50 [8],TGI [8],GI50 [9],TGI [9],GI50 [10],TGI [10]
Cc1cc(C)nc(SC2=C(Nc3cccc(Cl)c3)C(=O)N(Cc3ccccc3)C2=O)n1,> 170 µM,> 170 µM,> 170 µM,> 170 µM,> 170 µM,> 170 µM,> 170 µM,> 170 µM,> 170 µM,> 170 µM,> 170 µM,> 170 µM,> 170 µM,> 170 µM,> 170 µM,> 170 µM,> 170 µM,> 170 µM,> 170 µM,> 170 µM
Cn1cc(C2=C(c3c4n(c5ccccc35)CCC(CN)CC4)C(=O)NC2=O)c2ccccc21 (configuration not stated),4.01 µM,8.02 µM,4.14 µM,9.24 µM,3.49 µM,7.45 µM,2.88 µM,9.29 µM,5.26 µM,11.4 µM,5.14 µM,16.2 µM,4.99 µM,11.6 µM,2.56 µM,8.5 µM,3.88 µM,7.39 µM,5.05 µM,10.9 µM
COc1ccc(Nc2ccnc(NCCCNc3ccnc4cc(Cl)ccc34)n2)cc1,1.12 µM,2.36 µM,1.55 µM,3.66 µM,1.21 µM,2.65 µM,0.393 µM,2.2 µM,0.322 µM,1.27 µM,0.254 µM,0.912 µM,1.68 µM,3.18 µM,1.46 µM,3.83 µM,1.67 µM,3.73 µM,2.43 µM,8.5 µM
O=C(O)c1cccc(CC(Br)C(=O)O)c1 (configuration not stated),,> 100 µM,,> 100 µM,,> 100 µM,,> 100 µM,,> 100 µM,,> 100 µM,,> 100 µM,,> 100 µM,,> 100 µM,,> 100 µM
COc1cc(C(=O)n2nc(N3CCN(C)CC3)c3cc(N)ccc32)cc(OC)c1OC,3.54 µM,18.2 µM,6.89 µM,> 100 µM,15.5 µM,37.3 µM,3.65 µM,14.9 µM,4.23 µM,17.1 µM,3.64 µM,53.3 µM,4.26 µM,93.2 µM,12.8 µM,> 100 µM,3.51 µM,27.2 µM,4.15 µM,> 100 µM
COC(=O)N/N=C(\C)C(CN1CCOCC1)C(c1ccccc1)c1cc2ccccc2oc1=O (configuration not stated),,> 100 µM,,> 100 µM,,> 100 µM,,> 100 µM,,> 100 µM,,56.5 µM,,> 100 µM,,> 100 µM,,> 100 µM,,> 100 µM
Cc1ccc2sc3c(NCCCNCCO)nc4ccccc4c3c(=O)c2c1,1.77 µM,3.24 µM,1.78 µM,3.63 µM,1.55 µM,3.19 µM,1.67 µM,3.36 µM,1.49 µM,2.94 µM,1.55 µM,4.07 µM,1.45 µM,3.02 µM,1.63 µM,3.7 µM,1.73 µM,3.21 µM,1.74 µM,3.35 µM
O=C1C=CC2(C=C1)CCN=c1c(O)c3c(c(O)c12)=NC=N3,20 µM and > 100 µM,34.4 µM and > 100 µM,17.9 µM and > 100 µM,39.2 µM and > 100 µM,21.2 µM and > 100 µM,36.7 µM and > 100 µM,20.3 µM and > 100 µM,47.3 µM and > 100 µM,,15.1 µM and > 100 µM,10.6 µM and 93 µM,> 100 µM,18.3 µM and > 100 µM,33.2 µM and > 100 µM,,71.4 µM and > 100 µM,14.4 µM and > 100 µM,29.1 µM and > 100 µM,,19.5 µM and > 100 µM
COc1cc(-c2nc3ccccc3s2)ccc1OCc1nc2n(n1)S(=O)(=O)c1ccccc1N2C,> 100 µM,> 100 µM,> 100 µM,> 100 µM,> 100 µM,> 100 µM,> 100 µM,> 100 µM,> 100 µM,> 100 µM,> 100 µM,> 100 µM,> 100 µM,> 100 µM,> 100 µM,> 100 µM,> 100 µM,> 100 µM,> 100 µM,> 100 µM
Cc1ncc([N+](=O)[O-])n1CCNC(=O)CCn1ccnc1[N+](=O)[O-],,> 100 µM,,> 100 µM,,> 100 µM,,> 100 µM,,> 100 µM,,> 100 µM,,> 100 µM,,> 100 µM,,> 100 µM,,> 100 µM
O=C(O)CCC1CCC(c2cc(F)ccc2F)(S(=O)(=O)c2ccc(Cl)cc2)CC1 (configuration not stated),> 56.9 µM,> 100 µM,44.4 µM and > 100 µM,> 100 µM,42.3 µM and > 100 µM,> 100 µM,30.3 µM and > 100 µM,> 100 µM,40.3 µM and > 66.5 µM,> 100 µM,25.5 µM and > 47.3 µM,> 100 µM,32.1 µM and > 100 µM,> 100 µM,17.8 µM and 49.3 µM,55.4 µM and > 100 µM,34.3 µM and 85.5 µM,> 100 µM,23.4 µM and > 100 µM,> 100 µM
CC/C(=C(\CC)c1ccc(OCCN(CC)CC)cc1)c1ccc(OCCN(CC)CC)cc1,1.37 µM,3.91 µM,3.81 µM,15.5 µM,1.47 µM,3.07 µM,0.0759 µM,3.78 µM,1.19 µM,5.5 µM,1.38 µM,6.55 µM,3.48 µM,12 µM,1.74 µM,7.09 µM,2.01 µM,12.6 µM,5.77 µM,21.8 µM
Cc1ccc(C(=O)NC2CCCCC2)cc1-c1ccc(C(=O)NCC2CC2)cc1,10.8 µM,> 25 µM,12.4 µM,> 25 µM,> 25 µM,> 25 µM,> 25 µM,> 25 µM,> 25 µM,> 25 µM,> 25 µM,> 25 µM,> 25 µM,> 25 µM,> 20.2 µM,> 25 µM,> 22.5 µM,> 25 µM,> 25 µM,> 25 µM
CCOC(=O)c1c(Cl)c2c(n1Cc1cc(OC)cc(OC)c1)-c1oncc1CCC2,0.246 µM,1.8 µM,0.419 µM,> 100 µM,0.301 µM,1.49 µM,0.314 µM,68 µM,0.709 µM,> 100 µM,0.121 µM,> 100 µM,0.4 µM,49.6 µM,0.451 µM,> 100 µM,0.346 µM,> 100 µM,0.607 µM,> 100 µM
